For data set [1], the system named is multidrug resistant HIV-1 strain RT-MDR with a V106A mutation. Nature of the data set: microbe, parasite or virus in culture. The format is cell-based. As for the experimental part: (§1) Normal human peripheral blood mononuclear cells (PBMNC) from HIV-negative donors were cultured 72 hours in RPMI 1640 supplemented with 20% (v/v) heat-inactivated fetal bovine serum (FBS), 3% interleukin-2,2 mM L-glutairine, 25 mM HEPES, 2 μL, NAHCO, […] gentamicin, and 4 μg/mL phytohemagglutinin prior to exposure to HIV-1 or other HIV strain at a multiplicity of infection (MOI) of 0.1 during a one-hour adsorption period at 37° C. in a humidified 5% CO2 atmosphere. Subsequently, cells were cultured in 96-well microplates (100 μL/well; 2×10^6 cells/mL, triplicate wells) in the presence of various inhibitor concentrations. Aliquots of culture supernatants were removed from the wells on the 7th day after infection for p24 antigen p24 enzyme immunoassays (EIA), as previously described in Erice et al., 1993, Antimicrob. Ag. Chemotherapy 37:385-838. The applied p24 EIA was the unmodified kinetic assay commercially available from Coulter Corporation/Immunotech, Inc. (Westbrook, Me.).
(§2) Percent inhibition of viral replication was calculated by comparing the p24 values from the test substance-treated infected cells with p24 values from untreated infected cells (i.e, virus controls).

In data set [2] the test system is NNI-resistant HIV-1 strain A17 with a Y181C mutation. Nature of the data set: microbe, parasite or virus in culture. The format is cell-based. To be noted: for IC50: read-out: IC50 A17 (Y181C). As for the experimental part:
as §1, §2

The next data set relates to PBMC. Nature of the data set: Microculture tetrazolium Assay (MTA, XTT) for cytotoxicity. Type of data set: cell-based, human. In general terms: Tetrazolium dyes change colour on reduction, which living cells bring about.
Experiment in data set [3]: as above
The format is cell-based, human. To be noted: human, PBMC; Table 1; cytotoxicity, MTA.

For data set [4], the target named is T1, purified recombinant HIV RT (Human immunodeficiency virus type 1 group M subtype B, UniProt P04585).
T1 construct: against purified recombinant HIV RT using the cell-free Quan-T-RT system
Kind of data set: Purified recombinant HIV RT inhibition, cell-free Quan-T-RT scintillation proximity assay. The format is biochemical. The protocol:
In the assay, a DNA/RNA template is bound to SPA beads via a biotin/strepavidin linkage. The primer DNA is a 16-mer oligo(T) which has been annealed to a poly(A) template. The primer/template is bound to a strepavidin-coated SPA bead.
^3H-TTP is incorporated into the primer by reverse transcription. […] The compound being tested was added to the reaction mixture at 0.001 μM-100 μM concentrations. […] The reaction was stopped by addition of 0.2 ml of 120 mM EDTA. The samples were counted in an open window using a Beckman LS 7600 instrument and IC50 values were calculated by comparing the measurements to untreated samples.
(Scintillation proximity formats need no separation of bound from free tracer.)

A further data set has as its system HIV-1 strain HTLVIIIB
Nature of the data set: Inhibition of HIV-1 HTLVIIIB replication in PBMC (p24 antigen EIA). Type of data set: cell-based. The protocol:
The HIV strain HTLVIIIB was kindly provided by Dr. Neal T.Wetherall, VIROMED Laboratories, Inc., and was propagated in CCRF-CEM cells.
Subsequently, cells were cultured in 96-well microplates (100 μL/well; 2×10^6 cells/mL, triplicate wells) in the presence of various inhibitor concentrations. […] Ag. […] The applied p24 EIA was the unmodified kinetic assay commercially available from Coulter Corporation/Immunotech, Inc. (Westbrook, Me.).
as §2

Setting [5] is: Human immunodeficiency virus 1, PBMC, read-out: IC50 RT-MDR.
[6] abbreviates: Human immunodeficiency virus 1, PBMC.
Where [7] appears, read: Human immunodeficiency virus 1, PBMC, read-out: IC50 HTLV mB.
[8] abbreviates: Human immunodeficiency virus 1, PBMC, Table 2, wild-type HIV-1, read-out: IC50 p24.
The mark [9] stands for this setting: Human immunodeficiency virus 1, Table 1, p24 production in PBMC, read-out: IC50 HTLV mB.
Setting [10] is: read-out: IC50 rRT, Table 2, recombinant HIV reverse transcriptase.
Where [11] appears, read: Table 1, recombinant HIV RT, read-out: IC50 rRT.
Where [12] appears, read: Table 2, recombinant HIV reverse transcriptase, read-out: IC50 rRT.

Where two headings read alike, the source gives them in different places. Bounds are passed on as bounds.

The IC50 is the point on the concentration scale where inhibition reaches its midpoint. Usually melting point stands for the temperature, or range, at which the solid turns liquid. The term CC50 denotes the concentration at which the toxic effect on the cells reaches its halfway point. Read a high CC50 as lower toxicity to the cells.

Compound `Cc1ccc(CCNC(=S)Nc2ccc(Br)cn2)cc1` [HI-244, N-[2-(4-methylphenethyl)]-N′-[2-(5-bromopyridyl)]thiourea] displayed a melting point of 159 to 162 °C. In data set [1] (setting [5]), the half-inhibitory concentration (IC50) was over 1 nM. The “times more effective than trovirdine” value in data set [1] (RT-MDR strain, V106A plus 74V, 41L, 215Y) is given as 20 times. The “resistance of mutant strain to compound” value in data set [1] (V106A mutant strain (RT-MDR)) is “no resistance”. In data set [1] (against multidrug-resistant V106A mutant strain RT-MDR), the selectivity index is > 71,000. Moreover, the “times more potent than trovirdine” value in data set [2] (A17 strain, Y181C) is on record as 7 times. Moreover, in data set [2] (setting [6]), the IC50 came out at 70 nM. Moreover, in data set [2] (NNI-resistant A17 strain (Y181C mutation)), the “higher potency relative to trovirdine” value is recorded as 7 fold. In data set [2] (Y181C mutant strain (A17 strain)), the “resistance of mutant strain to compound” value was found to be 10 fold. The selectivity index in data set [2] (against NNI-resistant Y181C mutant strain A17) is given as > 1,000. The “cytotoxicity to PBMC” value in the data set on PBMC (at a concentration) is “not cytotoxic”. This compound also returned a CC50 in data set [3] of 71000 nM. The half-maximal inhibitory concentration (IC50) in data set [4] was 100 nM. The IC50 with HIV-1 strain HTLVIIIB (setting [7]) turned out to be 7 nM. Also, in the data set with HIV-1 strain HTLVIIIB (Human immunodeficiency virus 1, PBMC, read-out: IC50 for inhibition of replication of HIV-1 strain HTLVIIIB in PBMC), the IC50 was found to be 7 nM. The IC50 with HIV-1 strain HTLVIIIB (Human immunodeficiency virus 1, PBMC, read-out: IC50 p24) came to 7 nM. Moreover, the selectivity index with HIV-1 strain HTLVIIIB (against wild-type HIV-1 strain HTLVIIIB) is recorded as > 10,000.
In data set [3], `Oc1ccc(CCNC(=S)Nc2ccc(Br)cn2)cc1` [HI-256, N-[2-(4-hydroxyphenethyl)]-N′-[2-(5-bromopyridyl)]thiourea] gave a CC50 of over 100000 nM. Also, the IC50 in data set [4] amounted to 87700 nM; in the data set with HIV-1 strain HTLVIIIB (setting [7]), 3070 nM.
In turn, `S=C(NCCc1ccc(Br)cc1)Nc1ccc(Br)cn1` [HI-243, N-[2-(4-bromophenethyl)]-N′-[2-(5-bromopyridyl)]thiourea] gave a melting point of 184 to 185 °C. In data set [1] (setting [5]), the IC50 was over 1 nM. The IC50 in data set [2] (setting [6]) was 1000 nM. The 50% cytotoxic concentration (CC50) in data set [3] is over 100000 nM. The half-maximal inhibitory concentration (IC50) in data set [4] came to 900 nM. The IC50 in the data set on HIV-1 strain HTLVIIIB (setting [8]) was 70 nM. Besides, the half-inhibitory concentration (IC50) in the data set on HIV-1 strain HTLVIIIB (setting [9]) was determined as 70 nM.
On to `S=C(NCCc1ccc(Cl)cc1)Nc1ccc(Br)cn1` [HI-255, N-[2-(4-chlorophenethyl)]-N′-[2-(5-bromopyridyl)]thiourea], for which the melting point fell in the range of 180 to 183 °C. Moreover, the 50% inhibitory concentration (IC50) in data set [4] was determined as 2500 nM. In data set [4] (setting [10]), the half-inhibitory concentration (IC50) was found to be 2500 nM. For the same compound, in the data set on HIV-1 strain HTLVIIIB (setting [9]), the IC50 is 20800 nM.
As to `Fc1ccc(CCNC(=S)Nc2ccc(Br)cn2)cc1` [HI-242, N-[2-(4-fluorophenethyl)]-N′-[2-(5-bromopyridyl)]thiourea], the concentration for half-maximal inhibition (IC50) in data set [4] (setting [11]) and in data set [4] (setting [12]) was 6400 nM in each case.
Take `O=[N+]([O-])c1ccc(CCNC(=S)Nc2ccc(Br)cn2)cc1` [HI-231]: the IC50 in data set [4] (setting [11]) and in data set [4] (setting [12]) was over 100000 nM each time.
Turning to `S=C(NCCc1ccccc1)Nc1ccc(Br)cn1` [HI-275, N-[2-(5-Bromopyridinyl)]-N′-[2-(Phenethyl)] thiourea], in data set [4] (setting [11]), the IC50 came out at 1300 nM.
As for `S=C(NCCc1ccccn1)Nc1ccc(Br)cn1` [Trovirdine, reference compound], the “times less potent than HI-244” value in data set [1] (RT-MDR strain) is 20 times. Moreover, the 50% inhibitory concentration (IC50) in data set [1] (Table 1, p24 production in PBMC, read-out: IC50 RT-MDR (Y106A)) worked out at 20 nM; in data set [2] (Table 1, p24 production in PBMC) it was 500 nM; in the data set on HIV-1 strain HTLVIIIB (Table 1, p24 production in PBMC, read-out: IC50 HTLV mB), 7 nM; with HIV-1 strain HTLVIIIB (Table 2, wild-type HIV-1, read-out: IC50 p24), 7 nM. Also, the CC50 in the data set on PBMC (Table 1, cytotoxicity, MTA) was over 100000 nM.
`COc1ccc(CCNC(=S)Nc2ccc(Br)cn2)cc1` [HI-238, N-[2-(4-methoxyphenethyl)]-N′-[2-(5-bromopyridyl)]thiourea] had a melting point of 178 to 179 °C. This compound also gave a CC50 in data set [3] of over 100000 nM. Further, in data set [4], the concentration for half-maximal inhibition (IC50) was 900 nM. The concentration for half-maximal inhibition (IC50) in data set [4] (setting [10]) came out at 900 nM. Also, the IC50 in the data set on HIV-1 strain HTLVIIIB (setting [8]) came out at 15 nM. The IC50 in the data set with HIV-1 strain HTLVIIIB (setting [9]) came out at 15 nM.

(Values after patent publication US6586450B2, “Phenethyl-thiourea compounds and use” (Parker Hughes Institute, priority 1999, dated 2003).)
